Assay [1] has as its system amphotropic murine leukemia virus (A-MLV). Put plainly: Viral infection assay, control virus with A-MLV envelope. It is filed as cell-based. The following applies: Example 8 table; read-out: IC50 (A-MLV). As to the method:
(§1) Production of recombinant HIV-1 expressing luciferase. […] After 48 hours, the supernatant was collected, buffered with 50 mM Hepes pH 7.4 (final concentration) and centrifuged for 5 minutes at 750×g and 4° C. The virus-containing supernatant was used directly or frozen at −80° C.
(§2) Viral infection assay. Each test compound was serially diluted in DMSO in a 96-well B&W isoplate (PerkinElmer, Boston, Mass.) using an HP D300 Digital Dispenser, to a final volume of 450 nl. DMSO was used as a control. Viruses pseudotyped with a specific Env were added to each well and incubated briefly at room temperature. Cf2Th-CD4/CCR5 cells were detached with StemPro Accutase Cell Dissociation Reagent (Invitrogen, cat #A11105-01), washed once, and 5000 cells were added to each well. […] Following incubation, the medium was aspirated and cells were lysed with 30 μl of Passive Lysis Buffer (Promega, cat #E1941). The activity of the firefly luciferase, which was used as a reporter protein in the system, was measured with a Centro LB 960 luminometer (Berthold Technologies, Oak Ridge, Tenn.). One hundred microliters of assay buffer (15 mM MgSO4, 15 mM KH2PO4/K2HPO4 pH 7.8, 1 mM ATP and 1 mM DTT) was injected to each well, followed by a 50 μl injection of 1 mM Dluciferin potassium salt (BD Pharmingen, San Jose, Calif.); luminescence was measured for 2 sec. Infection of PBMC was done as above, but 20,000-40,000 cells/well and viruses concentrated by ultracentrifugation were used. After four hours of incubation with viruses, the cells were centrifuged at 200×g for 6 minutes at 4° C., resuspended in 100 μl RPMI-PBMC medium and incubated at 37° C. for an additional 36-40 hours (total 40-44 hours). Supernatant was removed after centrifugation at 400×g for 5 minutes and cells were processed to detect luciferase activity, as described above.
The effect of 18A on viral infection was tested using recombinant HIV-1 pseudotyped with the envelope glycoproteins of different primate immunodeficiency viruses or the amphotropic murine leukemia virus (A-MLV) as a control.

Another assay has as its system HIV-1JR-FL. Put plainly: Viral infection assay, recombinant HIV-1 pseudotyped with JR-FL Env (wild type and mutants), Cf2Th-CD4/CCR5 cells. Conditions: for IC50: Example 8 table, read-out: IC50 (JR-FL); for Therapeutic Index (TI): calculated from IC50 against JR-FL and A-MLV. The class given is cell-based.
Description: HIV-1 Env mutants. Mutations were introduced into the plasmid expressing the fulllength HIV-1YU2 or HIV-1JR-FL Envs using the QuikChange II site-directed mutagenesis protocol or the QuikChange multi site-directed mutagenesis kit (Stratagene). The presence of the desired mutations was confirmed by DNA sequencing. All HIV-1 Env residues are numbered based on alignment with the HXBc2 prototypic sequence, according to current convention.
as §1, §2

The structures appear in SMILES notation.

Regarding `O=C(N/N=C/c1ccc(O)c(Br)c1)Nc1cccc2nsnc12` [Compound 18A48], the IC50 (in assay [1]; with HIV-1JR-FL) was > 112 µM each time.

Regarding `O=C(N/N=C/c1ccccc1O)Nc1cccc2nsnc12` [Compound 18A10], the IC50 in assay [1] is < 0.5 µM. Further, in the assay with HIV-1JR-FL, the IC50 is ~0.7 µM and the “Therapeutic Index (TI)” value is listed as <1.

Take `O=C(N/N=C/c1cccc(O)c1)Nc1cccc2nsnc12` [Compound 18A19]: the 50% inhibitory concentration (IC50) in assay [1] was found to be 46.2 µM. In the assay with HIV-1JR-FL, the IC50 was determined as 6.6 µM and the “Therapeutic Index (TI)” value is 7.

For `COc1ccc(/C=N/NC(=O)Nc2cccc3nsnc23)cc1OC` [Compound 18A5], in assay [1], the concentration for half-maximal inhibition (IC50) stood at 25.9 µM. Moreover, in the assay with HIV-1JR-FL, the concentration for half-maximal inhibition (IC50) amounted to 5 µM and the “Therapeutic Index (TI)” value is 5.1.

As to `COc1ccc(/C=N/NC(=O)Nc2cccc3nsnc23)cc1O` [Compound 18A25], the IC50 in assay [1] was determined as 11.6 µM. In the assay on HIV-1JR-FL, the IC50 is 1.8 µM and the “Therapeutic Index (TI)” value is 6.4.

Consider `O=C(N/N=C/c1ccc(Cn2cccn2)cc1)Nc1cccc2nsnc12` [Compound 18A52], for which the IC50 in assay [1] came out at 37.3 µM. Also, in the assay with HIV-1JR-FL, the IC50 was determined as 3.4 µM and the “Therapeutic Index (TI)” value is listed as 11.

Consider `COc1ccc(/C=N/NC(=O)Nc2cccc3nsnc23)c(OC)c1` [Compound 18A2], for which the 50% inhibitory concentration (IC50) in assay [1] is 101 µM. For the same compound, in the assay on HIV-1JR-FL, the half-inhibitory concentration (IC50) amounted to 60 µM and the “Therapeutic Index (TI)” value is listed as 1.7.

Take `Cc1cc(/C=N/NC(=O)Nc2cccc3nsnc23)cc(C)c1O` [Compound 18A16]: the IC50 in assay [1] was 0.1 µM; in the assay with HIV-1JR-FL, 0.2 µM. Moreover, the “Therapeutic Index (TI)” value with HIV-1JR-FL is on record as 0.5.

`COc1cc(/C=N/NC(=O)Nc2cccc3nsnc23)cc(OC)c1OC` [Compound 18A21]: the 50% inhibitory concentration (IC50) (in assay [1]; in the assay on HIV-1JR-FL) was > 112 µM in each case.

With `COc1ccc(/C=N/NC(=O)Nc2cccc3nsnc23)cc1` [Compound 18A1], the 50% inhibitory concentration (IC50) (in assay [1]; in the assay on HIV-1JR-FL) was > 112 µM in each case.

`COc1ccc(/C=N/NC(=O)Nc2cccc3nsnc23)c(O)c1` [Compound 18A58]: the IC50 (in assay [1]; with HIV-1JR-FL) was > 112 µM in each case.

As to `O=C(N/N=C/c1ccc(O)c(Cl)c1)Nc1cccc2nsnc12` [Compound 18A32], the results for the concentration for half-maximal inhibition (IC50) (in assay [1]; in the assay on HIV-1JR-FL) were 19.2 µM and 4 µM, respectively.

`COc1cc(/C=N/NC(=O)Nc2cccc3nsnc23)ccc1O` [Compound 18A18]: the concentration for half-maximal inhibition (IC50) in assay [1] worked out at 0.8 µM. Besides, in the assay on HIV-1JR-FL, the IC50 worked out at 1.5 µM and the “Therapeutic Index (TI)” value is on record as 0.6.

Turning to `O=C(N/N=C/c1ccccc1)Nc1cccc2nsnc12` [Compound 18A13], the IC50 came out at 75.2 µM in assay [1] and 16.9 µM in the assay with HIV-1JR-FL. For the same compound, in the assay on HIV-1JR-FL, the “Therapeutic Index (TI)” value is on record as 4.4.

Turning to `O=C(N/N=C/c1ccc(O)c(O)c1)Nc1cccc2nsnc12` [Compound 18A20], the IC50 in assay [1] came out at 56.3 µM. In the assay on HIV-1JR-FL, the half-inhibitory concentration (IC50) worked out at 5.2 µM and the “Therapeutic Index (TI)” value was 10.8.

Turning to `O=C(N/N=C/c1cccc(O)c1O)Nc1cccc2nsnc12` [Compound 18A36], the IC50 in assay [1] was determined as 50.5 µM. Also, in the assay with HIV-1JR-FL, the IC50 amounted to 6.2 µM and the “Therapeutic Index (TI)” value was 8.1.

As to `O=C(N/N=C/c1ccc(O)c([N+](=O)[O-])c1)Nc1cccc2nsnc12` [Compound 18A40], the half-maximal inhibitory concentration (IC50) in assay [1] was > 112 µM; in the assay on HIV-1JR-FL, 7.6 µM. Also, in the assay on HIV-1JR-FL, the “Therapeutic Index (TI)” value was >14.7.

As to `O=C(N/N=C/c1cccc(F)c1)Nc1cccc2nsnc12` [Compound 18A34], the IC50 in assay [1] came out at 69.4 µM. Besides, in the assay with HIV-1JR-FL, the concentration for half-maximal inhibition (IC50) was 10.2 µM and the “Therapeutic Index (TI)” value is listed as 6.8.

With `O=C(N/N=C/c1c(O)cc(O)cc1O)Nc1cccc2nsnc12` [Compound 18A17], the 50% inhibitory concentration (IC50) in assay [1] turned out to be 64 µM. In the assay on HIV-1JR-FL, the IC50 worked out at 24.8 µM and the “Therapeutic Index (TI)” value is on record as 2.6.

Take `O=C(N/N=C/c1cc(O)cc(O)c1)Nc1cccc2nsnc12` [Compound 18A49]: the concentration for half-maximal inhibition (IC50) in assay [1] was > 112 µM. Besides, in the assay with HIV-1JR-FL, the IC50 was found to be 13 µM and the “Therapeutic Index (TI)” value is reported as >8.6.

Regarding `COc1ccc(/C=N/NC(=O)Nc2cccc3nsnc23)c(Cl)c1OC` [Compound 18A30], the concentration for half-maximal inhibition (IC50) (in assay [1]; with HIV-1JR-FL) was > 112 µM in each case.

Values taken from patent US20170298056A1, “SMALL MOLECULE INHIBITORS OF HIV-1 ENTRY AND METHODS OF USE THEREOF” (Dana-Farber Cancer Institute, Inc., priority 2014, published 2017).
